Data reported in PubChem BioAssay (NCI).
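Protocol summary: plate cells (96-well), add compound at 5 concentrations, incubate 48 h, interpolate endpoints linearly. GI50: concentration for 50% inhibition of growth. Definition used: TGI = concentration required for complete inhibition of growth.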

What was measured:
Assay in all cases: DTP human tumour cell line panel, 48 h
ACHN renal = test system: ACHN renal
IGROV1 ovarian = test system: IGROV1 ovarian
CCRF-CEM leukemia = test system: CCRF-CEM leukemia
HCT-116 colon = test system: HCT-116 colon
RPMI-8226 leukemia = test system: RPMI-8226 leukemia
HL-60(TB) leukemia = test system: HL-60(TB) leukemia
CAKI-1 renal = test system: CAKI-1 renal
SK-MEL-5 melanoma = test system: SK-MEL-5 melanoma
KM12 colon = test system: KM12 colon
DU-145 prostate = test system: DU-145 prostate

Row | Compound | TGI (ACHN renal) [µM] | TGI (IGROV1 ovarian) [µM] | TGI (CCRF-CEM leukemia) [µM] | TGI (HCT-116 colon) [µM] | TGI (RPMI-8226 leukemia) [µM] | TGI (HL-60(TB) leukemia) [µM] | TGI (CAKI-1 renal) [µM] | TGI (SK-MEL-5 melanoma) [µM] | TGI (KM12 colon) [µM] | TGI (DU-145 prostate) [µM] | GI50 (ACHN renal) [µM] | GI50 (IGROV1 ovarian) [µM] | GI50 (CCRF-CEM leukemia) [µM] | GI50 (HCT-116 colon) [µM] | GI50 (RPMI-8226 leukemia) [µM] | GI50 (HL-60(TB) leukemia) [µM] | GI50 (SK-MEL-5 melanoma) [µM] | GI50 (KM12 colon) [µM] | GI50 (DU-145 prostate) [µM] | GI50 (CAKI-1 renal) [µM]
1 | COc1ccc(/C=C2\CCC(CN(C)C)C2=O)cc1 (configuration not stated) | 21.3 | 18.4 | > 25.9 | 8.27 | 3.97 | 4.23 | 5.05 | 16.3 | 22.1 | 5.8 | – | – | – | – | – | – | – | – | – | –
2 | Nc1c(C(=O)Nc2cccc3ccccc23)sc2nc3c(cc12)CCCCCC3 | > 50 | > 50 | > 50 | > 50 | > 50 | > 50 | – | 6.85 | > 50 | > 50 | 2.79 | 2.31 | 1.65 | 1.72 | 2.03 | 1.65 | 0.929 | 1.39 | 2.05 | –
3 | CCOc1ccc(-n2cc(-c3ccc(N(C)C)cc3)[n+]3c2CCCCC3)cc1 | > 100 | > 100 | > 100 | > 100 | > 24.9 | 1.53 | > 100 | 0.475 | 27.8 | > 100 | 2.63 | 0.923 | 1.08 | 0.267 | 0.0567 | 0.164 | 0.0958 | 0.168 | 1.82 | 10.4
4 | CCCCCCCCCCCC(=O)[O][Sn]([CH2]CCC)([CH2]CCC)[CH2]CCC | 0.157 | 0.175 | – | 0.14 | 0.098 | 0.155 | 0.216 | 0.0786 | 0.117 | 0.17 | 0.0596 | 0.0547 | – | 0.0379 | 0.0228 | 0.0567 | 0.0302 | 0.0357 | 0.0544 | 0.0965
5 | COC(=O)c1cccc(COc2ccc([N+](=O)[O-])cc2Cl)c1 | > 100 | > 100 | > 100 | > 100 | > 100 | – | > 100 | > 100 | > 100 | > 100 | – | – | – | – | – | – | – | – | – | –
6 | CC(=O)NC1C(OCc2ccccc2)OC(COC(=O)CCCCCCCCCCNC(=O)CCNc2ccc([N+](=O)[O-])c3[nH]c4ccc(O)cc4c(=O)c23)C(O)C1OC(C)C(=O)N[C@H](C(=O)N[C@H](CCC(=O)O)C(N)=O)C(C)C (some centres not stated) | > 100 | > 100 | 82.5 | > 100 | 46.6 | > 100 | > 100 | > 100 | > 100 | – | – | – | – | – | – | – | – | – | – | –
7 | OC(c1cc2c(Cl)cc(Cl)cc2c2cc(C(F)(F)F)ccc12)C1CCCCN1 (configuration not stated) | 3.65 | 3.58 | – | 3.37 | 4.95 | 3.71 | 3.46 | 3.12 | 3.46 | 3.55 | 1.82 | 1.74 | – | 1.67 | 2.3 | 1.85 | 1.73 | 1.89 | 2 | 1.68
8 | Nc1c2c(c(O)c3c1=C(CO)C=N3)=NCCS2=O (configuration not stated) | – | 4.29 | 13.2 | 4.95 | 13.5 | 4.5 | – | 2.36 | 10.6 | 2.87 | – | 1.9 | 1.65 | 2.25 | 3.29 | 1.94 | 1.13 | 1.7 | 1.54 | –
9 | O=CN/C=C\c1cc(O)ccc1O | 28.2 | > 58.4 | > 100 | 25.2 | 44.6 | 47.8 | 26.4 | > 50.9 | > 100 | – | – | – | – | – | – | – | – | – | – | –
10 | O=c1cc(/C=C/c2ccccc2)c2ccc(O/C(=C\c3ccccc3)c3nc4ccccc4c(=O)o3)cc2o1 | 61.7 | > 100 | 66.5 | 36.5 | 60.3 | 45.5 | > 100 | 41 | > 100 | – | – | – | – | – | – | – | – | – | – | –
11 | C=C(C=O)[C@@H]1CC=C(C=O)CC1 | 9.65 | > 23.3 | – | – | 6.63 | > 100 | > 100 | > 46.5 | 27.8 | 11.2 | 2.75 | 3.19 | – | – | 2.14 | 2.48 | 3.9 | 4.21 | 3.44 | 29.1
12 | COc1cccc(/C=N/[N-]C(N)=O)c1[O-].[Cu+2].c1ccncc1 | > 100 | 49.9 | 56.2 | 32 | 67.1 | 55.1 | 31.1 | 37.2 | 35.9 | – | – | – | – | – | – | 26.5 | – | – | – | –
13 | COc1ccc2c(C(=O)NCCCCCC(=O)O)cc3cc4c(cc3c2c1)OCO4 | > 100 | – | > 100 | > 100 | > 100 | – | > 100 | > 100 | > 100 | > 100 | > 100 | – | > 100 | > 100 | > 100 | – | > 100 | > 100 | > 100 | > 100
14 | Cc1cc(=O)[nH]c2c1C(=O)C(=O)C=C2 | > 100 | > 100 | – | 35.4 | > 100 | – | 37.4 | 36.9 | – | 53.9 | 31.7 | 48.6 | – | 18.2 | 39 | – | 16.7 | – | 25 | 19.4
15 | O=c1c2ccc(Br)cc2nc(-c2ccccc2)n1NC1OC(CO)C(O)C(O)C1O (configuration not stated) | > 100 | > 100 | > 100 | > 100 | > 100 | > 100 | > 100 | > 100 | > 100 | – | – | – | – | – | – | – | – | – | – | –
16 | O=c1c(-c2nc3ccccc3[nH]2)cc2ccccc2n1Cc1cn(Cc2ccc(F)cc2)nn1 | > 40.5 | > 100 | > 100 | 5.56 | > 100 | – | > 100 | > 85.7 | > 41.5 | 1.05 | 0.492 | 0.221 | 0.135 | 0.0442 | 0.0427 | – | 0.164 | 0.143 | 0.143 | 0.246
17 | COc1cc(-c2cc(C(=O)N3CCN(C(=O)c4ccccc4NCc4cccs4)CC3)nc3cc(-c4ccccc4)nn23)cc(OC)c1OC | > 100 | > 100 | – | > 100 | – | 75.4 | 8.33 | 11.5 | > 100 | 40.6 | 4.93 | 13.9 | – | 4.49 | – | 6.15 | 2.85 | 3.16 | 5 | 2.78
18 | COc1ccc2c(c1)cn1c3ccc(OC)cc3[nH]c(=O)c21 | 1.69 | 0.813 | – | 1.05 | 0.0984 | < 0.0219 | – | 0.76 | 0.247 | – | < 0.0226 | < 0.0155 | – | < 0.0157 | 0.0253 | < 0.0113 | < 0.019 | < 0.0187 | < 0.0217 | < 0.01
19 | COc1cc(/C=C/C(=O)c2ccc(SC)cc2)cc(OC)c1OC | 19.5 | – | 21.1 | 13.7 | > 100 | – | 32.2 | 24.5 | 29.1 | 26.4 | 6.98 | – | 3.37 | 3.3 | 3.9 | – | 12 | 13.3 | 12.8 | 16.1
20 | COc1cc(C2C(Cl)C(=O)N2NC(=O)c2ccccc2O)cc(OC)c1OC (configuration not stated) | > 10 | > 10 | > 10 | – | – | 5.96 | – | > 10 | > 10 | 1.91 | – | – | – | – | – | – | – | – | – | –
21 | COc1cc(C2C(C(=O)Nc3ccccc3C)=C(C)NC(C)=C2C(=O)Nc2ccccc2C)ccc1O | > 100 | > 100 | > 100 | > 100 | > 100 | > 100 | > 100 | > 100 | > 100 | – | – | – | – | – | – | – | – | – | – | –
22 | CC/C(=C(/c1ccc(Cl)cc1)c1ccc(OCCCN(C)C)cc1)c1ccc(OC)cc1 | 12.4 | 10.8 | 7.19 | 1.57 | 2.54 | 2.84 | 12.5 | – | 10.1 | 10.1 | 5.61 | 3.09 | 1.79 | 0.86 | 1.17 | 1.15 | – | 2.55 | 3.48 | 5.55
23 | CN=C(NC#N)NCc1ccccc1 | > 100 | > 100 | > 100 | > 100 | > 100 | > 100 | > 100 | > 100 | > 100 | – | – | – | – | – | – | – | – | – | – | –
24 | C/C(=N\O)c1ccc(Nc2cc(-c3ccccc3)nc3c(O)cccc23)cc1 | 28.2 | 34.6 | 14.8 | 25.9 | 30.8 | 96.6 | 35 | – | 21.4 | 28.5 | 10.7 | 17.1 | 3.51 | 13.2 | 4.5 | 0.585 | – | 4.06 | 13.5 | 10.2
25 | CCCCCCCCCCCCCCCc1nc(SCC(=O)O)n[nH]1 | > 100 | > 100 | > 100 | > 100 | > 100 | > 100 | > 100 | > 100 | > 100 | – | – | – | – | – | – | – | – | – | – | –
